Source: paper PMC4109950, “Novel Small Molecule XPO1/CRM1 Inhibitors Induce Nuclear Accumulation of TP53, Phosphorylated MAPK and Apoptosis in Human Melanoma Cells” (PLoS ONE, 2014)

Assays:
FO-1 [1] = assay: Apoptosis via Annexin V/PI staining, flow cytometry; format: cell-based; conditions: Homo sapiens, FO-1, 72 hr treatment
Method: (§1) Phosphatidyl serine exposure was assessed in tumor cells and melanocytes by flow cytometry using APC-Annexin V and propidium iodide (PI; BD Pharmingen, San Diego, CA) as previously described. Each analysis was performed utilizing at least 10,000 events. We considered the Annexin V positive cells (early apoptosis) and Annexin V/PI double positive cells (late apoptosis) cells as the apoptotic cell population. The 4-parameter logistic or Hill model was the assumed dose-response relationship for the in vitro inhibition and cell viability experiments. Nonlinear least squares regression was used to estimate the model parameters and generate 95% confidence intervals for the IC50 estimates. For in vivo experiments, tumor volumes were first log-transformed to meet test assumptions of normality and homoscedasticity. Changes in tumor volumes were analyzed using a two-sample t-test to evaluate the difference from first day of treatment to the last for A375 xenografts (day 17), and from day 1 to day 10 for CHL-1 xenografts as day 10 marks the first mouse sacrificed when 1500 mm^3 tumor volume was reached. ANOVA was used to compare the expression of XPO1 staining among samples from the melanoma tissue core array. The Wilcoxon rank-sum test was used to analyze data comparing growth inhibition and apoptosis of the five metastatic melanoma cell lines to the three melanocyte cell lines.

A375 [2] = assay: as above; format: cell-based; conditions: Homo sapiens, A-375, A375, 72 hr treatment
Method: as §1

HEM-l [3] = assay: as above; format: cell-based; conditions: Homo sapiens, Melanocyte, HEM-l primary melanocytes, 72 hr treatment
Method: as §1

Wm1366 [4] = assay: as above; format: cell-based; conditions: Homo sapiens, Wm1366, 72 hr treatment
Method: as §1

Hs294T [5] = assay: as above; format: cell-based; conditions: Homo sapiens, Hs 294T, 72 hr treatment
Method: as §1

CHL-1 [6] = assay: as above; format: cell-based; conditions: Homo sapiens, CHL-1, 72 hr treatment
Method: as §1

HEM-l [7] = assay: Cellular growth assay (MTS), 72 h; format: cell-based; conditions: Homo sapiens, Melanocyte, HEM-l primary melanocytes, 72 hr treatment, read-out: Growth Inhibition IC50
Method: (§2) Cells were seeded in 96-well plates (2×10^4) in triplicate and allowed to adhere overnight. Fresh media containing KPT-185, KPT-185-trans, KPT-276, or KPT-330 was added to each well at various concentrations (range = 40–10240 nM) and cells were incubated at 37°C/5% CO2 for 72 hours. Cells treated with DMSO (diluent) and untreated cells served as controls. At this time, the percentage of cell growth was evaluated using the MTS assay (CellTiter 96 AQueous Non-Radioactive Cell Proliferation Assay, Promega) and quantified by determining the optical density at 595 nm using a Bio-Rad iMark™ microplate reader. The 4-parameter logistic or Hill model was the assumed dose-response relationship for the in vitro inhibition and cell viability experiments. Nonlinear least squares regression was used to estimate the model parameters and generate 95% confidence intervals for the IC50 estimates. For in vivo experiments, tumor volumes were first log-transformed to meet test assumptions of normality and homoscedasticity. Changes in tumor volumes were analyzed using a two-sample t-test to evaluate the difference from first day of treatment to the last for A375 xenografts (day 17), and from day 1 to day 10 for CHL-1 xenografts as day 10 marks the first mouse sacrificed when 1500 mm^3 tumor volume was reached. ANOVA was used to compare the expression of XPO1 staining among samples from the melanoma tissue core array. The Wilcoxon rank-sum test was used to analyze data comparing growth inhibition and apoptosis of the five metastatic melanoma cell lines to the three melanocyte cell lines.

Wm1366 [8] = assay: Cellular growth assay (MTS), 72 h; format: cell-based; conditions: Homo sapiens, Wm1366, 72 hr treatment, read-out: Growth Inhibition IC50
Method: as §2

Hs294T [9] = assay: Cellular growth assay (MTS), 72 h; format: cell-based; conditions: Homo sapiens, Hs 294T, 72 hr treatment, read-out: Growth Inhibition IC50
Method: as §2

A375 [10] = assay: Cell cycle assay (PI, flow cytometry); format: cell-based, human; conditions: A375, 1 µM, 24 h or 48 hr, PI staining
Method: (§3) Cell-cycle analysis was conducted using propidium iodide (PI) following the manufacturer's protocol (BD Pharmigen). Cells were plated in 6-well plates and treated for 24 h or 48 hr with 1 µM of KPT-185. A total of 1×10^5 cells per analysis were examined by flow cytometry (FACSCalibur), and analyzed using ModFit LT 3.3.

CHL-1 [11] = assay: Cell cycle assay (PI, flow cytometry); format: cell-based, human; conditions: CHL-1, 1 µM, 24 h or 48 hr, PI staining
Method: as §3

melanoma cell lines = assay: Immunoblot analysis of PARP cleavage; format: cell-based, human; conditions: KPT-185 at the IC50 for apoptosis for each cell line
Method: Immunoblots were prepared as previously described and probed with antibodies specific for TP53, CDKN1A (p21), XPO1, HDM2 (MDM2), Lamin B (Santa Cruz Biotechnology, Santa Cruz, CA), pMAPK, PARP (Cell Signaling Technology), GAPDH or β-actin (Sigma). Following incubation with the appropriate horseradish peroxidase-conjugated secondary antibody, immune complexes were detected using the ECL Plus detection kit (Amersham Biosciences, Ayesbury, UK).

FO-1 [12] = assay: Cellular growth assay (MTS), 72 h; format: cell-based, human; conditions: FO-1, 72 hr treatment, read-out: Growth Inhibition IC50
Method: as §2

A375 [13] = assay: Cellular growth assay (MTS), 72 h; format: cell-based, human; conditions: A375, 72 hr treatment, read-out: Growth Inhibition IC50
Method: as §2

HEMn-MP [14] = assay: Cellular growth assay (MTS), 72 h; format: cell-based, human; conditions: HEMn-MP primary melanocytes, highest concentration 10240 nM
Method: as §2

HEMn-DP [15] = assay: Cellular growth assay (MTS), 72 h; format: cell-based, human; conditions: HEMn-DP primary melanocytes, highest concentration 10240 nM
Method: as §2

CHL-1 [16] = assay: Cellular growth assay (MTS), 72 h; format: cell-based, human; conditions: Homo sapiens, CHL-1, 72 hr treatment, read-out: Growth Inhibition IC50
Method: as §2

HEMn-MP [17] = assay: Apoptosis via Annexin V/PI staining, flow cytometry; format: cell-based, human; conditions: HEMn-MP primary melanocytes, 72 hr, range 0–10.24 µM
Method: as §1

HEMn-DP [18] = assay: as above; format: cell-based, human; conditions: HEMn-DP primary melanocytes, 72 hr, range 0–10.24 µM
Method: as §1

A375 [19] = assay: Subcellular fractionation and immunoblot analysis; format: cell-based, human
Method: (§4) Human melanoma cell lines were seeded in 6-well plates (2×10^5) and allowed to adhere overnight. After treatment for various time points, the cells were harvested then fractionated using NE-PER Nuclear and Cytoplasmic Extraction Reagents from Thermo Scientific following the manufacturer's protocol. Nuclear and cytoplasmic fractions were validated via immunoblot analysis using Lamin B and GAPDH antibodies. Immunoblots were prepared as previously described and probed with antibodies specific for TP53, CDKN1A (p21), XPO1, HDM2 (MDM2), Lamin B (Santa Cruz Biotechnology, Santa Cruz, CA), pMAPK, PARP (Cell Signaling Technology), GAPDH or β-actin (Sigma). Following incubation with the appropriate horseradish peroxidase-conjugated secondary antibody, immune complexes were detected using the ECL Plus detection kit (Amersham Biosciences, Ayesbury, UK).

CHL-1 [20] = assay: Subcellular fractionation and immunoblot analysis; format: cell-based, human
Method: as §4

[21] = Homo sapiens, Melanocyte, read-out: Growth Inhibition IC50

COc1cc(-c2ncn(/C=C\C(=O)OC(C)C)n2)cc(C(F)(F)F)c1 [KPT-185]
IC50 (FO-1 [1]): 297 nM | IC50 (A375 [2]): 147 nM | IC50 (HEM-l [3]): 3170 nM | IC50 (Wm1366 [4]): 661 nM | IC50 (Hs294T [5]): 212 nM | IC50 (CHL-1 [6]): 2410 nM | IC50 (HEM-l [7]): 4130 nM | IC50 (Wm1366 [8]): 347 nM | IC50 (Hs294T [9]): 48.9 nM | Cell cycle effect (A375 [10]): arrested in the G1 phase | Cell cycle effect (CHL-1 [11]): arrested in the G1 phase | PARP cleavage (melanoma cell lines): cleavage of PARP | IC50 (FO-1 [12]): 32.1 nM | IC50 (FO-1 [12]; Homo sapiens, 72 h): ~50 nM | IC50 (A375 [13]): 45.9 nM | IC50 (A375 [13]; Homo sapiens, A-375, 72 h): ~50 nM | Growth Inhibition IC50 (HEMn-MP [14]): Not achieved | IC50 (HEMn-MP [14]; [21]): > 10200 nM | Growth Inhibition IC50 (HEMn-DP [15]): Not achieved | IC50 (HEMn-DP [15]; [21]): > 10200 nM | IC50 (CHL-1 [16]): 592 nM | Apoptosis IC50 (HEMn-MP [17]): not achievable | Apoptosis IC50 (HEMn-MP [17]; listed as KPT185): Not achieved | Apoptosis IC50 (HEMn-DP [18]): not achievable | Apoptosis IC50 (HEMn-DP [18]; listed as KPT185): Not achieved | Expression of TP53 protein (A375 [19]; A375 (TP53 WT), 500 nM, nuclear localization at 16 hour): upregulated | CDKN1A expression (A375 [19]; A375, 500 nM): upregulation | HDM2 expression in cytoplasmic and nuclear compartment (A375 [19]; A375, KPT-185 at IC50, 16 hr, no detectable protein at basal level): robust expression of HDM2 | Nuclear accumulation of phosphorylated MAPK (A375 [19]; A375, nuclear fraction, immunoblot): accumulated in the nuclear compartment | TP53 or CDKN1A induction (CHL-1 [20]; CHL-1 (mutated TP53), 500 nM): only limited TP53 or CDKN1A induction | Nuclear accumulation of phosphorylated MAPK (CHL-1 [20]; CHL-1, nuclear fraction, immunoblot): accumulated in the nuclear compartment
